Data from US7419969B2 (Bristol-Myers Squibb Company, priority 2004, dated 2008).

Biological target: T1, HIV-integrase (Human immunodeficiency virus type 1 group M subtype B, UniProt P04585)
T1 construct: Recombinant integrase (0.26 ng) was incubated with the beads
Assay: in-vitro activity against HIV-integrase (HIV Integrase Inhibition, SPA bead assay)
Type: biochemical
Details: Table 1; recombinant integrase, activity class
How it was run: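 Recombinant integrase (0.26 ng) pre-bound for 90 min at 37 °C to biotinylated substrate DNA on streptavidin SPA beads, then washed. Inhibitors added with 33P-labelled target DNA; reaction stopped with 10 mM EDTA. Scintillation CPM taken as integration signal.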

SMILES | IC50 [nM]
O=C(NCc1ccc(F)cc1-n1cncn1)c1nc2n(c(=O)c1O)CCCC21CCCC1 [Example 4, N-[[4-fluoro-2-(1H-1,2,4-triazol-1-yl)phenyl]methyl]-7′,8′-dihydro-3′-hydroxy-4′-oxo-spiro[cyclopentane-1,9′(6′H)-[4H]pyrido[1,2-α]pyrimidine]-2′-carboxamide] | 1 to 10
O=C(NCc1ccc(F)cc1)c1nc2n(c(=O)c1O)CCCC21CCCC1 [Example 1, N-[(4-fluorophenyl)methyl]-7′,8′-dihydro-3′-hydroxy-4′-oxo-spiro[cyclopentane-1,9′(6′H)-[4H]pyrido[1,2-a]pyrimidine]-2′-carboxamide] | 1 to 10
CS(=O)(=O)c1cc(F)ccc1CNC(=O)c1nc2n(c(=O)c1O)CCCC21CCCC1 [Example 11, N-[[4-fluoro-2-(methylsulfonyl)phenyl]methyl]-7′,8′-dihydro-3′-hydroxy-4′-oxo-spiro[cyclopentane-1,9′(6′H)-[4H]pyrido[1,2-α]pyrimidine]-2′-carboxamide] | 1 to 10
COc1ccc(CNC(=O)c2nc3n(c(=O)c2O)CCOC32CCCC2)c(OC)c1 [Example 25, N-[(2,4-dimethoxyphenyl)methyl]-6′,7′-dihydro-3′-hydroxy-4′-oxo-spiro[cyclopentane-1,9′(4′H)-pyrimido[2,1-c][1,4]oxazine]-2′-carboxamide] | 10 to 100
Cc1cc(CNC(=O)c2nc3n(c(=O)c2O)CCOC32CCOC2)ccc1F (stereo not drawn) [Example 37, N-[(4-fluoro-3-methylphenyl)methyl]-4,5,6′,7′-tetrahydro-3′-hydroxy-4′-oxo-spiro[furan-3(2H),9′(4′H)-pyrimido[2,1-c][1,4]oxazine]-2′-carboxamide] | 1 to 10
Cc1ccc(CNC(=O)c2nc3n(c(=O)c2O)CCCC32CCC2)cc1 [Example 63, N-[(4-methylphenyl)methyl]-7′,8′-dihydro-3′-hydroxy-4′-oxo-spiro[cyclobutane-1,9′(6′H)-[4H]pyrido[1,2-α]pyrimidine]-2′-carboxamide] | 10 to 100
COc1ccc(CNC(=O)c2nc3n(c(=O)c2O)CCOC32CCCC2)cc1 [Example 23, 6′,7′-dihydro-3′-hydroxy-N-[(4-methoxyphenyl)methyl]-4′-oxo-spiro[cyclopentane-1,9′(4′H)-pyrimido[2,1-c][1,4]oxazine]-2′-carboxamide] | 10 to 100
CS(=O)(=O)c1cc(F)ccc1CNC(=O)c1nc2n(c(=O)c1O)CCOC21CCC1 [Example 53, N-[[4-fluoro-2-(methylsulfonyl)phenyl]methyl]-6′,7′-dihydro-3′-hydroxy-4′-oxo-spiro[cyclobutane-1,9′(4′H)-pyrimido[2,1-c][1,4]oxazine]-2′-carboxamide] | 1 to 10
CN(C)S(=O)(=O)c1cc(F)ccc1CNC(=O)c1nc2n(c(=O)c1O)CCOC21CCOCC1 [Example 47, N-[[2-[(dimethylamino)sulfonyl]-4-fluorophenyl]methyl]-2,3,5,6,6′,7′-hexahydro-3′-hydroxy-4′-oxo-spiro[4H-pyran-4,9′(4′H)-pyrimido[2,1-c][1,4]oxazine]-2′-carboxamide] | 10 to 100
O=C(NCc1ccc(F)cc1)c1nc2n(c(=O)c1O)CCC21CCCC1 [Example 84, N-[(4-fluorophenyl)methyl]-6′,7′-dihydro-3′-hydroxy-4′-oxo-spiro[cyclopentane-1,8′(4′H)-pyrrole[1,2-α]pyrimidine]-2′-carboxamide] | 1 to 10

Same assay, conditions: Table 1a; recombinant integrase, activity class

SMILES | IC50 [nM]
O=C(NCc1ccc(F)cc1)c1nc2n(c(=O)c1O)CCNC21CCC1 [Example 132, Spiro[cyclobutane-1,9′(6′H)-[4H]pyrazino[1,2-a]pyrimidine]-2′-carboxamide, N-[(4-fluorophenyl)methyl]-7′,8′-dihydro-3′-hydroxy-4′-oxo-] | 1 to 10
Cc1ncnn1-c1cc(F)ccc1CNC(=O)c1nc2n(c(=O)c1O)CCN(C)C21CCCCC1 [Example 97, Spiro[cyclohexane-1,9′(6′H)-[4H]pyrazino[1,2-a]pyrimidine]-2′-carboxamide, N-[[4-fluoro-2-(5-methyl-1H-1,2,4-triazol-1-yl)phenyl]methyl]-7′,8′-dihydro-3′-hydroxy-8′-methyl-4′-oxo-] | 10 to 100
